According to paper PMC10100792, “Host-Erythrocytic Sphingosine-1-Phosphate Regulates Plasmodium Histone Deacetylase Activity and Exhibits Epigenetic Control over Cell Death and Differentiation” (Microbiology Spectrum, 2023):

Key:
[1] = target: T1, PfHDAC-1 (histone deacetylase-1) (Plasmodium falciparum, UniProt Q9XYC7); experiment: biochemical; set-up: gene HDAC1
[2] = target: T2, hSphK-1 (sphingosine kinase 1) (Homo sapiens, UniProt Q9NYA1); experiment: fluorometric conversion of NBD-Sph ([…]) to NBD-S1P by purified rSphK-1; assay type: biochemical
T2 construct: gene SPHK1; full-length, 6×His-SphK-1 (1155 bp CDS)

hHDAC-1 = target: T3, hHDAC-1 (Homo sapiens, UniProt Q13547); experiment: microscale thermophoresis; assay type: binding
T3 construct: gene HDAC1

[3] = target: T1, PfHDAC-1 (histone deacetylase-1); experiment: microscale thermophoresis; also lipid overlay, S1P-bead pull-down, and […] inhibition of the recombinant enzyme at […]; assay type: binding; set-up: gene HDAC1; full-length, 6×His-PfHDAC-1 (1380 bp CDS from Pf3D7)

T1 sequence (Q9XYC7 1-449): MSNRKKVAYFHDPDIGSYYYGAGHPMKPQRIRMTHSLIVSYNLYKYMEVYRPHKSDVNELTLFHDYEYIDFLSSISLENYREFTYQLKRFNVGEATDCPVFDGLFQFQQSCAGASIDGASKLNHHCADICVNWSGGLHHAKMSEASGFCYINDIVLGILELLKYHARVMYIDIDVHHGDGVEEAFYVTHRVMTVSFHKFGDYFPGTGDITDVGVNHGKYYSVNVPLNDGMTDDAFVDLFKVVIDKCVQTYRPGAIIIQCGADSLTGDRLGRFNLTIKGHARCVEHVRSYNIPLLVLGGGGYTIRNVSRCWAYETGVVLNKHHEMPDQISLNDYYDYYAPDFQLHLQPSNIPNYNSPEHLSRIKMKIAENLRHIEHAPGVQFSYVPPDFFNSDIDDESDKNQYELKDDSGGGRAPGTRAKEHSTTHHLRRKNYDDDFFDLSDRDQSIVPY
T3 sequence (Q13547 whole entry): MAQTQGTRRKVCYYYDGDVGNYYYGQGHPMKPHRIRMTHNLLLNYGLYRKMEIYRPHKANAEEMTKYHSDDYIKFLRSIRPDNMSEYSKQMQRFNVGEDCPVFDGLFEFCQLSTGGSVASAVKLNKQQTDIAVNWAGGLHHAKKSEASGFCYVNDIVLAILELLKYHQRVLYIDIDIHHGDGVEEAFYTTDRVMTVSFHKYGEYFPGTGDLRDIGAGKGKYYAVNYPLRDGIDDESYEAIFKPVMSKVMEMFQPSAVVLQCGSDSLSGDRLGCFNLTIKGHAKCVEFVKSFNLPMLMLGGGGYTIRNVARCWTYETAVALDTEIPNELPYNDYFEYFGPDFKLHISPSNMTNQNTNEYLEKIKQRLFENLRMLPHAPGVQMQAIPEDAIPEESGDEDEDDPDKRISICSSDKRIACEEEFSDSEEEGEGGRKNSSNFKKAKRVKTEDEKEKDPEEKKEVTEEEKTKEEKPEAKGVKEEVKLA
T2 sequence (Q9NYA1 whole entry): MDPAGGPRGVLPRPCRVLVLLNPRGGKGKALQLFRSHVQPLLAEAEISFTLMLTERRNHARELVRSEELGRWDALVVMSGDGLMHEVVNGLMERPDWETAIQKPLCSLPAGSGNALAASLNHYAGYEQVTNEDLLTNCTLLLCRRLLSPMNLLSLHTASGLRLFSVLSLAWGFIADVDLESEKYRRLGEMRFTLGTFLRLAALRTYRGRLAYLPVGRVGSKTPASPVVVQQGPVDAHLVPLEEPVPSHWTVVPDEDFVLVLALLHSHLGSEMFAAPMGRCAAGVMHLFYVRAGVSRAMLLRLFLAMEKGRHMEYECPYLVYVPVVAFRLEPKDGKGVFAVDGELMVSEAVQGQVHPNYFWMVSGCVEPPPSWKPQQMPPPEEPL

## O=C(CCCCCCC(=O)Nc1ccccc1)NO [SAHA, Suberoylanilide Hydroxamic Acid]
[1]
  Kd: 2090 ± 450 nM

## N[C@@H](CO)[C@H](O)/C=C/CCCCCCCCCCCCCNc1ccc([N+](=O)[O-])c2nonc12 [NBD-Sph, NBD-Sphingosine]
[2]
  fluorometric conversion of NBD-Sph (10 μM) to NBD-S1P by purified rSphK-1: fluorimetry-based enzymatic assay using NBD-sphingosine

## CCCCCCCCCCCCC/C=C/[C@@H](O)[C@@H](N)COP(=O)(O)O [S1P, Sphingosine-1-Phosphate]
hHDAC-1
  Kd: 1610 ± 800 nM
[3]
  Kd: 177 ± 24 nM
